IC50 and EC50 data for 13 molecules are collected here from ChEMBL document CHEMBL1142911, “Design and synthesis of pyridine-pyrazolopyridine-based inhibitors of protein kinase B/Akt” (Bioorg Med Chem, 2007).

For assay [1], the target named is cAMP-dependent protein kinase (PKA) (Homo sapiens, UniProt P22694+P17612+P22612). The experiment in a line: Inhibition of PKA. It counts as protein assay.
Assay [2] relates to MIA PaCa-2. As to the kind of experiment: Antiproliferative activity against MIA PaCa cells by MTT assay. The class given is functional, cell-based. The following applies: Homo sapiens.

`Cc1n[nH]c2cnc(-c3cncc(OC[C@@H](N)Cc4c[nH]c5ccccc45)c3)cc12` displayed an IC50 in assay [1] of 15 nM. In addition, a half-maximal response in assay [2] (EC50) required 41 nM. The molecule `N[C@H](COc1cncc(-c2cc3cn[nH]c3cn2)c1)Cc1ccccc1` gave an EC50 in assay [2] of 1690 nM. In assay [2], `N[C@H](COc1cncc(-c2cc3cn[nH]c3cc2[N+](=O)[O-])c1)Cc1c[nH]c2ccccc12` showed an EC50 of 2940 nM. With `Nc1cc2[nH]nc(Cl)c2cc1-c1cncc(OC[C@@H](N)Cc2c[nH]c3ccccc23)c1`, the IC50 in assay [1] is recorded as 58 nM. In assay [2], this molecule had an EC50 of 330 nM. Taken in the same sequence, the figures for `N[C@H](COc1cncc(-c2ccc3[nH]nc(Cl)c3c2)c1)Cc1c[nH]c2ccccc12` were 6.8 nM and 380 nM. `Cc1n[nH]c2cnc(-c3cncc(OC[C@@H](N)Cc4ccccc4)c3)cc12` displayed an IC50 in assay [1] of 32 nM. In addition, in assay [2], the EC50 worked out at 680 nM. In turn, `N[C@H](COc1cncc(-c2cc3c(Cl)n[nH]c3cn2)c1)Cc1ccccc1` yielded an IC50 in assay [1] of 46 nM.

As to `N[C@H](COc1cncc(-c2cc3c(-c4ccccc4)n[nH]c3cn2)c1)Cc1ccccc1`, the IC50 in assay [1] is 371 nM. In assay [2], this molecule showed an EC50 of 584 nM.

For the molecule `N[C@H](COc1cncc(-c2cc3c(-c4ccco4)n[nH]c3cn2)c1)Cc1ccccc1`, the IC50 in assay [1] amounted to 274 nM. In assay [2], this molecule yielded an EC50 of 1200 nM.

`N[C@H](COc1cncc(-c2ccc3[nH]ncc3c2)c1)Cc1c[nH]c2ccccc12` showed an EC50 in assay [2] of 820 nM. In assay [1], `N[C@H](COc1cncc(-c2ccc3[nH]nc(C(F)(F)F)c3c2)c1)Cc1c[nH]c2ccccc12` gave an IC50 of 16 nM. Moreover, the EC50 in assay [2] came to 1290 nM.

`N[C@H](COc1cncc(-c2cc3cn[nH]c3cn2)c1)Cc1c[nH]c2ccccc12` came in with an EC50 in assay [2] of 1160 nM. In assay [1], `C=Cc1n[nH]c2cnc(-c3cncc(OC[C@@H](N)Cc4ccccc4)c3)cc12` registered an IC50 of 32 nM. For the same molecule, in assay [2], the EC50 amounted to 660 nM.
